From patent US10501482B2, “Compounds for treating spinal muscular atrophy” (Hoffmann-La Roche Inc., priority 2013, dated 2019) come the findings set out here.

Structures can show the parent of a compound that is named as a salt.

One experiment relates to SMN protein. The experiment is described as follows: SMN protein assay (HTRF) in cultured SMA patient fibroblast cells. The experiment is classed as cell-based. To be noted: SMA Type 1 human fibroblasts GM03813, 48 hours; for EC1.5x SMN protein (EC1.5x concentration for SMN protein expression): 7-point concentration curve, concentration giving 1.5 times SMN protein vs vehicle; for max. fold increase (maximum fold increase of SMN protein): 7-point concentration data, fold vs vehicle control. The method in brief: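 SMA patient fibroblasts seeded at 5,000 cells/well, treated 48 h at 37 °C in triplicate per concentration (7-point series). Lysed in RIPA with protease inhibitors; SMN read by HTRF (anti-SMN d2/kryptate, overnight RT), 665/620 nm ratio. ΔF vs blank, expressed as fold over vehicle; EC1.5x and maximum fold increase derived.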
Background: In TR-FRET formats the signal depends on donor and acceptor labels being close together.

Experiment [1] concerns full length SMN2 minigene mRNA (FL SMN2mini) in HEK293H cells stably transfected with the SMN2-A minigene construct. The experiment is described as follows: SMN2 minigene mRNA splicing RT-qPCR assay in cultured cells. It is filed as cell-based. To be noted: Homo sapiens, HEK293-H, 24 hours, 7-point concentration curve, concentration giving 1.5-fold FL SMN2mini mRNA vs vehicle, read-out: EC1.5x minigene (EC1.5x concentration for production of full length SMN2 minigene mRNA). The procedure, abridged:
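Stably transfected HEK293H cells, 10,000/well in DMEM/10% FBS with hygromycin, attached 6 h, then received compound for 24 h at 37° C in duplicate at 7 concentrations. Multiplex RT-qPCR with GAPDH used primers that detect only the minigene. An efficiency-corrected ΔΔCt, GAPDH- and vehicle-normalized, gave EC1.5x concentrations.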
On the technique in general: In qPCR the cycle at which signal appears reflects the starting amount.

Take `Cc1cn2cc(NC(=O)c3c(F)cc(N4CCNC(C)C4)cc3F)cc(F)c2n1.Cl` (racemic) [Example 49, rac-2,6-difluoro-N-(8-fluoro-2-methyl-imidazo[1,2-a]-pyridin-6-yl)-4-(3-methylpiperazin-1-yl)benzamide hydrochloride]: in the experiment on SMN protein, the “EC1.5x SMN protein (EC1.5x concentration for SMN protein expression)” value (shortened to “EC1.5x SMN protein”) came out at 0.1733 µM and the “max. fold increase (maximum fold increase of SMN protein)” value (“max. fold increase” for short) stood at 1.658. Besides, the EC (1.5-fold) in experiment [1] stood at 0.0107 µM.
The corresponding values for `Cc1cn2cc(NC(=O)c3ccc(C4CCN(C)CC4)nc3)cc(F)c2n1` [Example 80, N-(8-fluoro-2-methylimidazo[1,2-a]pyridin-6-yl)-6-(1-methylpiperidin-4-yl)nicotinamide] are 0.52 µM, 1.5928 and 0.115 µM.
The corresponding values for `Cc1cn2cc(NC(=O)c3ccc(N4CCNCC4)cc3F)cc(C(F)(F)F)c2n1` [Example 59, 2-fluoro-N-(2-methyl-8-(trifluoromethyl)-imidazo[1,2-a]-pyridin-6-yl)-4-(piperazin-1-yl)-benzamide] are 0.2749 µM, 1.7116 and 0.109 µM.
`Cc1cn2cc(NC(=O)c3cnc(N4CCNC(C)C4)c(F)c3)cc(F)c2n1` (racemic) [Example 47, rac-5-fluoro-N-(8-fluoro-2-methyl-imidazo[1,2-a]-pyridin-6-yl)-6-(3-methylpiperazin-1-yl)nicotinamide hydrochloride]: in the experiment with SMN protein, the “EC1.5x SMN protein” value turned out to be 0.611 µM and the “max. fold increase” value came to 1.7065. For the same molecule, in experiment [1], the EC (1.5-fold) was 0.396 µM.
Take `Cc1cn2cc(NC(=O)c3c(F)cc(N4CCNC(C)C4)cc3F)cc(Cl)c2n1` (racemic) [Example 57, rac-N-(8-chloro-2-methylimidazo[1,2-a]pyridin-6-yl)-2,6-difluoro-4-(3-methylpiperazin-1-yl)benzamide trihydrochloride]: in the experiment on SMN protein, the “EC1.5x SMN protein” value was 1.7363 µM and the “max. fold increase” value came out at 1.578. The EC (1.5-fold) in experiment [1] was determined as 0.0262 µM.
For the molecule `COc1nc(N2CCNCC2)ccc1C(=O)Nc1cc(F)c2nc(C)cn2c1` [Example 64, N-(8-fluoro-2-methylimidazo[1,2-a]pyridin-6-yl)-2-methoxy-6-(piperazin-1-yl)nicotinamide], in the experiment with SMN protein, the “EC1.5x SMN protein” value is 0.1192 µM and the “max. fold increase” value is given as 1.7581. Further, the EC (1.5-fold) in experiment [1] was found to be 0.0291 µM.
Consider `Cc1nc2c(F)cc(NC(=O)c3ccc(N4CC(C)NC(C)C4)cc3)cc2o1` (stereo not drawn) [Example 30, 4-(3,5-dimethyl-piperazin-1-yl)-N-(4-fluoro-2-methyl-benzo[d]oxazol-6-yl)benzamide], for which, in the experiment with SMN protein, the “EC1.5x SMN protein” value amounted to 0.7612 µM and the “max. fold increase” value is 1.6734. In addition, the EC (1.5-fold) in experiment [1] was 0.41 µM.
The corresponding values for `Cc1cn2cc(NC(=O)c3cc(F)c(N4CCNC(C)C4)cc3F)cc(F)c2n1` (racemic) [Example 46, rac-2,5-difluoro-N-(8-fluoro-2-methyl-imidazo[1,2-a]-pyridin-6-yl)-4-(3-methylpiperazin-1-yl)benzamide hydrochloride] are 0.3584 µM, 1.5572 and 0.0887 µM.
With `CCOc1nc(N2CCNCC2)ccc1C(=O)Nc1cc(F)c2nc(C)cn2c1` [Example 72, 2-ethoxy-N-(8-fluoro-2-methylimidazo[1,2-a]pyridin-6-yl)-6-(piperazin-1-yl)-nicotinamide], in the experiment with SMN protein, the “EC1.5x SMN protein” value was determined as 0.1324 µM and the “max. fold increase” value amounted to 1.7095. In addition, in experiment [1], the EC (1.5-fold) stood at 0.015 µM.
Taken in the same sequence, the figures for `Cc1cn2cc(NC(=O)c3ccc(N4CCNCC4)nc3)ccc2n1` [Example 14, N-(2-methyl-imidazo[1,2-a]-pyridin-6-yl)-6-(piperazin-1-yl)nicotinamide] were 0.7944 µM, 1.5912 and 0.231 µM.
As for `Cc1cn2cc(NC(=O)c3ccc(N4CCN[C@H](C)C4)cc3F)cc(F)c2n1` [Example 51, (R)-2-fIuoro-N-(8-fluoro-2-methyl-imidazo[1,2-a]-pyridin-6-yl)-4-(3-methylpiperazin-1-yl)benzamide hydrochloride], in the experiment with SMN protein, the “EC1.5x SMN protein” value is 0.0561 µM and the “max. fold increase” value is 1.7266. Further, in experiment [1], the EC (1.5-fold) was 0.0084 µM.
As for `Cc1cn2cc(NC(=O)c3ccc(N4CCNCC4)nc3OCC(F)(F)F)cc(F)c2n1` [Example 73, N-(8-fluoro-2-methylimidazo[1,2-a]pyridin-6-yl)-6-(piperazin-1-yl)-2-(2,2,2-trifluoro-ethoxy)nicotinamide], in the experiment with SMN protein, the “EC1.5x SMN protein” value came out at 0.7589 µM and the “max. fold increase” value is on record as 1.5775. For the same molecule, the EC (1.5-fold) in experiment [1] stood at 0.062 µM.
In the case of `Cc1cn2cc(NC(=O)c3ccc(N4CCN5CCC[C@H]5C4)cc3F)ccc2n1` [Example 31, (S)-2-fluoro-4-(hexahydropyrrolo[1,2-a]pyrazin-2(1H)-yl)-N-(2-methylimidazo[1,2-a]pyridin-6-yl)benzamide], in the experiment with SMN protein, the “EC1.5x SMN protein” value came to 0.2746 µM and the “max. fold increase” value is recorded as 1.7849. Moreover, in experiment [1], the EC (1.5-fold) turned out to be 0.119 µM.
Take `Cc1cn2cc(NC(=O)c3ccc(N4CCNC(C)C4)cn3)ccc2n1` (racemic) [Example 17, rac-N-(2-methyl-imidazo[1,2-a]-pyridin-6-yl)-5-(3-methyl-piperazin-1-yl)-picolinamide]: in the experiment on SMN protein, the “EC1.5x SMN protein” value came out at 0.5022 µM and the “max. fold increase” value is reported as 1.6966. The EC (1.5-fold) in experiment [1] was 0.233 µM.
The corresponding values for `Cc1cn2cc(NC(=O)c3ncc(N4CCNC(C)C4)cc3F)cc(F)c2n1` (racemic) [Example 48, rac-3-fluoro-N-(8-fluoro-2-methyl-imidazo[1,2-a]-pyridin-6-yl)-5-(3-methylpiperazin-1-yl)picolinamide hydrochloride] are 0.0621 µM, 1.738 and 0.0164 µM.
The corresponding values for `Cc1cn2cc(NC(=O)c3ccc(N4CC5(CNC5)C4)nc3)ccc2n1` [Example 16, N-(2-methyl-imidazo[1,2-a]-pyridin-6-yl)-6-(2,6-diazaspiro-[3,3]heptan-2-yl)nicotinamide hydrochloride] are 1.1992 µM, 1.6598 and 1.04 µM.
The corresponding values for `Cc1cn2cc(NC(=O)c3ccc(C4CCNCC4)cc3F)cc(F)c2n1.Cl` [Example 81, 2-fluoro-N-(8-fluoro-2-methylimidazo[1,2-a]pyridin-6-yl)-4-(piperidin-4-yl)benzamide hydrochloride] are 0.2723 µM, 1.6719 and 0.0374 µM.
As to `Cc1nc2c(F)cc(NC(=O)c3ccc(N4CC(C)NC(C)C4)nc3)cc2o1` (stereo not drawn) [Example 23, 6-(3,5-dimethyl-piperazin-1-yl)-N-(4-fluoro-2-methylbenzo[d]-oxazol-6-yl)-nicotinamide], in the experiment on SMN protein, the “EC1.5x SMN protein” value is 0.5092 µM and the “max. fold increase” value is reported as 1.6942. In experiment [1], the EC (1.5-fold) came to 0.201 µM.
The corresponding values for `Cc1cn2cc(NC(=O)c3ccc(N4CCN(C)CC4)cn3)nc2c(C)n1` [Example 9, N-(6,8-dimethyl-imidazo[1,2-a]-pyrazin-2-yl)-5-(4-methyl-piperazin-1-yl)picolinamide] are 1.527 µM, 1.6085 and 0.794 µM.
Take `Cc1cn2cc(NC(=O)c3ccc(N4CCNC(C)C4)cc3F)nc2c(C)n1` (racemic) [Example 5, rac-N-(6,8-dimethyl-imidazo[1,2-a]-pyrazin-2-yl)-2-fluoro-4-(3-methyl-piperazin-1-yl)-benzamide]: in the experiment with SMN protein, the “EC1.5x SMN protein” value was 0.107 µM and the “max. fold increase” value turned out to be 1.7757. The EC (1.5-fold) in experiment [1] is 0.0612 µM.
Taken in the same sequence, the figures for `Cc1cn2cc(NC(=O)c3ccc(N4CCNC(C)C4)cc3F)ccc2n1` (racemic) [Example 18, rac-2-fluoro-N-(2 methylimidazo-[1,2-a]pyridin-6-yl)-4(3-methyl-piperazin-1-yl)-benzamide] were 0.1346 µM, 1.7677 and 0.0523 µM.
Taken in the same sequence, the figures for `Cc1cn2cc(NC(=O)c3ccc(N4CCNCC4)nc3)cc(C(F)(F)F)c2n1` [Example 19, N-(2-methyl-8-(trifluoromethyl)-imidazo[1,2-a]-pyridin-6-yl)-6-(piperazin-1-yl)-nicotinamide] were 1.3818 µM, 1.664 and 0.267 µM.
